Each block holds one compound with its values, some of them ahead of it.
Assays:
[1] = Hygroscopicity test (25° C., humidity 75%, 24 h); type: physicochemical; settings: for Rate of moisture absorption: 1 g sample, temperature of 25° C., humidity of 75%; for hygroscopicity (conclusion in words from the hygroscopicity test): 25° C., humidity 75%
Method: Hygroscopicity test. Test Conditions: watch glasses were placed in the environment at the temperature of 25° C. and the humidity of 75% for 24 h, then for each of the following samples, 1 g was weighed, and the weighted samples were quickly placed in the environment at the temperature of 25° C. and the humidity of 75% for 24 h to absorb moisture sufficiently.

[2] = at 65%-85% RH; cited from earlier work

SMILES: O=C(O)c1cc(C(=O)O)c2c(n1)C(=O)C(=O)c1cc(C(=O)O)[nH]c1-2.[Na].[Na] [Crystal form I, pyrroloquinoline quinone disodium salt]
Rate of moisture absorption ([1]; disodium salt): 0% | hygroscopicity (conclusion in words from the hygroscopicity test) ([1]; disodium salt): not hygroscopic

SMILES: O=C(O)c1cc(C(=O)O)c2c(n1)C(=O)C(=O)c1cc(C(=O)O)[nH]c1-2.[Na].[Na] [Crystal form II, pyrroloquinoline quinone disodium salt]
Rate of moisture absorption ([1]; disodium salt): 0.30%

SMILES: O=C(O)c1cc(C(=O)O)c2c(n1)C(=O)C(=O)c1cc(C(=O)O)[nH]c1-2.[Na] [crystal form A in CN201210452297.6, pyrroloquinoline quinone sodium salt]
hygroscopicity [2]: less than 3%

Second part, the compound after the results:

Rate of moisture absorption ([1]; disodium salt): 0% | hygroscopicity (conclusion in words from the hygroscopicity test) ([1]; disodium salt): not hygroscopic
SMILES: O=C(O)c1cc(C(=O)O)c2c(n1)C(=O)C(=O)c1cc(C(=O)O)[nH]c1-2.[Na].[Na] [Crystal form III, pyrroloquinoline quinone disodium salt]

Rate of moisture absorption [1]: 0% | hygroscopicity (conclusion in words from the hygroscopicity test) [1]: not hygroscopic
SMILES: O=C(O)c1cc(C(=O)O)c2c(n1)C(=O)C(=O)c1cc(C(=O)O)[nH]c1-2.[Na] [Crystal form IV, pyrroloquinoline quinone monosodium salt]

Rate of moisture absorption ([1]; disodium salt): 0.85% | hygroscopicity (conclusion in words from the hygroscopicity test) ([1]; listed as crystal form in CN201080031945, disodium salt): strongest hygroscopicity
SMILES: O=C(O)c1cc(C(=O)O)c2c(n1)C(=O)C(=O)c1cc(C(=O)O)[nH]c1-2.[Na].[Na] [Crystal form of the disodium salt in CN201080031945] [pyrroloquinoline quinone disodium salt, reference compound]

From patent US10364244B2, “Crystal form of pyrroloquinoline quinone sodium salt and preparation method and use thereof” (Zhejiang Hisun Pharmaceutical Co., Ltd., priority 2015, dated 2019)
